# According to PMC8041284, “Tunable Methacrylamides for Covalent Ligand Directed Release Chemistry” (Journal of the American Chemical Society, 2021):
# Target: BTK (Homo sapiens, UniProt Q06187)
# Assay: biochemical
# Details: read-out: BTK inhibition (%), 0.75 uM BTK, […] probe 3l, 15 min preincubation
# Chain of BTK (Q06187 402-655 limits assumed): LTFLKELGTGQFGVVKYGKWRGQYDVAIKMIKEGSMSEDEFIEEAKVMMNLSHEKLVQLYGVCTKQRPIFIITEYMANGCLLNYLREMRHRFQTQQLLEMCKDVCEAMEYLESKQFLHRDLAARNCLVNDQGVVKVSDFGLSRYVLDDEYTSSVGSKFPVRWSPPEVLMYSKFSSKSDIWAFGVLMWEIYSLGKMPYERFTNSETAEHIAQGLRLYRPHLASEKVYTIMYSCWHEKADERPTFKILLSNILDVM
row,inhibition at 10 µM,SMILES
1,-33.2%,O=C(COc1ccc(C(=O)c2ccccc2)cc1)NC1CCN(Cc2ccccc2)CC1 [PCM-0215280]
2,-7.7%,CN1C(=O)COc2c(C(=O)NC3CN4CCC3CC4)cc(Cl)cc21 (stereo not shown) [PCM-0095275]
3,11%,Nc1ncn([C@H]2C[C@H](O)[C@@H](CO)O2)c(=O)n1 [PCM-0094900]
4,-9%,CCN(CC)CCCCNc1ncc2cc(-c3cc(OC)cc(OC)c3)c(NC(=O)NC(C)(C)C)nc2n1 [PCM-0095037]
5,-31.7%,CCCNC(=O)[C@H]1O[C@@H]1C(=O)N[C@H](C(=O)N1CCC[C@H]1C(=O)OC)[C@@H](C)CC [PCM-0215739]
6,-2.8%,NC1(c2ccc(-c3nc4ccn5c(=O)[nH]nc5c4cc3-c3ccccc3)cc2)CCC1 [PCM-0095042]
7,-3.1%,Oc1ccc2ccccc2c1N=Nc1ccc(N=Nc2ccccc2)cc1 [PCM-0215976]
8,30.9%,O=C(/C=C/c1ccc(O)c(O)c1/C=C/c1ccc(O)c(O)c1)O[C@H](Cc1ccc(O)c(O)c1)C(=O)O [PCM-0216354]
9,37.9%,CC1(C)OCCn2c1nc1c(N3CCOCC3)nc(-c3cnc(N)nc3)nc12 [PCM-0215737]
10,8.5%,COc1ccc(C(=O)CC2(O)C(=O)Nc3c(Cl)ccc(Cl)c32)cc1 (stereo not shown) [PCM-0215405]
11,19.5%,CCCC(=O)Nc1cccc(NC(=O)c2ccccc2Br)c1 [PCM-0095401]
12,8.6%,CC/C=C(\C(=O)N[C@@H]1C(=O)N2C(C(=O)OCOC(=O)C(C)(C)C)=C(COC(N)=O)CS[C@H]12)c1csc(N)n1 [PCM-0215081]
13,6.2%,Cc1cc(Cn2cnc3c2C[C@@H](C(=O)O)N(C(=O)C(c2ccccc2)c2ccccc2)C3)ccc1N(C)C [PCM-0215225]
14,-18.5%,O=C(CCCCCCNC(=O)c1cnc(N(c2ccccc2)c2ccccc2)nc1)NO [PCM-0095595]
15,-6.9%,CN1C(C(=O)Nc2ccccn2)=C(O)c2sccc2S1(=O)=O [PCM-0086073]
16,69.7%,Cc1cc(Nc2ncc(Cl)c(Nc3ccccc3S(=O)(=O)C(C)C)n2)c(OC(C)C)cc1C1CCNCC1 [PCM-0095745]
17,-3.9%,Nc1cc(C(Cl)=C(Cl)Cl)c(S(N)(=O)=O)cc1S(N)(=O)=O [PCM-0086106]
18,-12.5%,COC(=O)c1ccc(O)c(OC)c1 [PCM-0214879]
19,-17%,Cc1cccc(Oc2cnc(=O)[nH]c2)c1 [PCM-0215674]
20,-12.8%,CCn1cc(C(=O)O)c(=O)c2cc(F)c(N3CCNCC3)cc21 [PCM-0085898]
21,-12.4%,CN=C(NC#N)NCCSCc1nc[nH]c1C [PCM-0214655]
22,4.6%,COc1ccc(C[C@@H]2c3cc(Oc4cc(C[C@@H]5c6cc(OC)c(OC)cc6CCN5C)ccc4O)c(OC)cc3CCN2C)cc1 [PCM-0215948]
23,5.4%,COc1ccc([C@@H]2CC(=O)c3c(O)cc(O[C@@H]4O[C@H](CO[C@@H]5O[C@@H](C)[C@H](O)[C@@H](O)[C@H]5O)[C@@H](O)[C@H](O)[C@H]4O)cc3O2)cc1OC [PCM-0215169]
24,3.9%,O=C(O)C1=C(CSc2nnnn2CS(=O)(=O)O)CS[C@@H]2[C@H](NC(=O)[C@H](O)c3ccccc3)C(=O)N12 [PCM-0214888]

row,inhibition at 10 µM,SMILES
1,21.6%,OC[C@H]1O[C@@](CO)(OC[C@@]2(O[C@H]3O[C@H](CO)[C@@H](O)[C@H](O)[C@H]3O)O[C@H](CO)[C@@H](O)[C@@H]2O)[C@@H](O)[C@@H]1O [PCM-0216401]
2,-25.5%,CCOC(=O)C1=C(C)NC(=S)NC1c1cccc(O)c1 (stereo not shown) [PCM-0215759]
3,10.9%,c1coc(CNc2ncnc3nc[nH]c23)c1 [PCM-0000462]
4,4.6%,Clc1cccc(CN=C2Nc3ccccc3NC23CCNCC3)c1 [PCM-0215457]
5,30.3%,Cc1nc(Nc2cnn(C3CCNCC3)c2)nc2c1N(C)C(=O)c1cc3ccccc3cc1N2C [PCM-0213384]
6,3.1%,O=C(O)c1cccnc1 [PCM-0086368]
7,-7%,COc1cc(S(=O)(=O)O)ccc1O [PCM-0215143]
8,3.4%,O=C(O)/C=C/CCCCCCCO [PCM-0214957]
9,3.1%,C[C@H](N[C@@H](CCc1ccccc1)C(=O)O)C(=O)N1CCC[C@H]1C(=O)O [PCM-0065638]
10,5.4%,O=CC[C@@H](O)[C@H](O)[C@H](O)CO [PCM-0214849]
11,1.4%,CC(=O)OCC(=O)[C@@]1(O)[C@H](C)C[C@H]2[C@@H]3CCC4=CC(=O)C=C[C@]4(C)[C@@]3(F)[C@@H](O)C[C@@]21C [PCM-0085852]
12,10%,COC1CCN(C(=O)c2cc(Cc3n[nH]c(=O)c4ccccc34)ccc2F)CC1 [PCM-0095571]
13,57.6%,COc1ccc(-c2cc(=O)c3c(O)cc(O)cc3o2)cc1O [PCM-0094859]
14,-3.1%,CC1=C[C@H]2[C@@H](CC1)[C@H](C)CC[C@H]2[C@@H](C)C(=O)O [PCM-0216135]
15,1.4%,Nc1nc(Cl)nc2c1ncn2[C@@H]1O[C@H](CO)[C@@H](O)[C@@H]1F [PCM-0094949]
16,5.4%,C[C@H](CCC(=O)NCCS(=O)(=O)O)[C@H]1CC[C@H]2[C@@H]3[C@@H](O)C[C@@H]4C[C@H](O)CC[C@]4(C)[C@H]3CC[C@]12C [PCM-0215517]
17,-1.5%,C[C@]1(COc2ccc(N3CCC(Oc4ccc(OC(F)(F)F)cc4)CC3)cc2)Cn2cc([N+](=O)[O-])nc2O1 [PCM-0215096]
18,-28.8%,O=C(CBr)c1ccc(O)cc1 [PCM-0214871]
19,7.7%,Cc1cc(-c2cc(C)c(NCCCS(=O)(=O)O)c(C)c2)cc(C)c1N [PCM-0216076]
20,60.2%,Cc1ccc(-c2csc(NC(=O)c3ccccc3)n2)c(C)c1 [PCM-0215320]
21,-3.1%,COc1cc(/C=C/C(=O)O[C@H]2[C@H](O)[C@@H](CO)O[C@@]2(CO)O[C@H]2O[C@H](CO)[C@@H](O)[C@H](O)[C@H]2O)ccc1O [PCM-0216331]
22,10%,CC[C@H]1OC(=O)[C@H](C)[C@@H](O[C@H]2C[C@@](C)(OC)[C@@H](O)[C@H](C)O2)[C@H](C)[C@@H](O[C@@H]2O[C@H](C)C[C@H](N(C)C)[C@H]2O)[C@](C)(O)C[C@@H](C)C(=O)[C@H](C)[C@@H](O)[C@]1(C)O [PCM-0216070]
23,38.1%,CCN(CC)C(=O)/C(C#N)=C/c1cc(O)c(O)c([N+](=O)[O-])c1 [PCM-0085960]

row,SMILES,inhibition at 10 µM
1,O=C(C[C@H]1NCCC[C@@H]1O)Cn1cnc2cc(Br)c(Cl)cc2c1=O [PCM-0102069],0%
2,CC(C)=CCC[C@](C)(O)[C@H]1CC[C@]2(C)[C@@H]1[C@H](O)C[C@@H]1[C@@]3(C)CC[C@H](O[C@@H]4O[C@H](CO)[C@@H](O)[C@H](O)[C@H]4O[C@@H]4O[C@H](CO)[C@@H](O)[C@H](O)[C@H]4O)C(C)(C)[C@@H]3CC[C@]12C [PCM-0216610],16.2%
3,Cc1cc(C(C)(C)C)cc(C)c1CC1=NCCN1 [PCM-0064984],-0.8%
4,CN(C)C(=O)C(CCN1CCC(O)(c2ccc(Cl)cc2)CC1)(c1ccccc1)c1ccccc1 [PCM-0065584],18.7%
5,C[C@@H]1C(=O)O[C@H](C)[C@H]1C[C@@H](O)[C@](C)(O)[C@H]1CC[C@@]2(O)C3=CC(=O)[C@@H]4C[C@@H](O)[C@@H](O)C[C@]4(C)[C@H]3CC[C@]12C [PCM-0216317],-5.4%
